# Measured values as given in PubChem BioAssay AID179 (DTP/NCI, 2004).
# The source made the active and inactive calls.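 Rule for the calls: active = compounds giving half or more protection of infected cells from virus-caused growth loss, again on retest; inactive = the rest.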
# Tested on: CEM cells HIV-1 protection, formazan growth assay
# Test: NCI AIDS Antiviral Assay
# Conditions: for IC50: measured here: growth of uninfected CEM cells
# In short: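 Category rules: moderately active means at least 50% protection on retest, and confirmed active means 100% protection reproducibly. The underlying data came from a formazan growth assay in HIV-1-infected CEM cells.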
Compound,EC50 [µM],IC50 [µM],outcome
CCCCCCCCCCCCCCOP(=O)(O)OCCC=C(c1cc(Cl)c(O)c(C(=O)O)c1)c1cc(Cl)c(O)c(C(=O)O)c1,> 200,> 100,–
Cn1nc2n(c1=O)CCCN2,> 200,> 200,–
COc1cc2c(cc1O)[C@@]1(Cc3ccc(OC)c(OC)c3)CCC(=O)N1CC2,–,–,inactive
CCOC(=O)/C(=C/c1ccc([N+](=O)[O-])cc1)C(=O)c1ccccc1,> 22.4,13.5,–
COc1cccc(C2c3cc4c(cc3OC(N3CCCC3)C2c2ccccc2)OCO4)c1O (centres undefined),> 200,3.16,–
COc1ccc2nc3cccc([N+](=O)[O-])c3c(NCCC(=O)O)c2c1,> 200,4.57,–
O=C(CC1(O)C(=O)N(CN2CCCCC2)c2ccccc21)c1ccccc1 (centres undefined),> 200,97.7,–
CCOP(=O)(Nc1ccc(-c2ccccc2)cc1)OCC,> 200,52.5,–
CCOC(=O)c1ccc(CS(=O)(=O)c2ccccc2C(=O)OCC)c([N+](=O)[O-])c1,> 85.1,> 85.1,–
N#Cc1c2c(cn3c1nc1ccccc13)CCCC2,> 200,107,–
CC(C)CCC[C@@H](C)C1CCC2[C@@H]3CC=C4C[C@@H](OC(=O)CCC(=O)NCC[N+](C)(C)CCCS(=O)(=O)[O-])CC[C@]4(C)C3CC[C@@]21C (some centres undefined),–,–,inactive
Cc1coc2c1C[C@@]1(C)[C@H](CCC[C@@H]1C)[C@H]2O,> 200,27.5,–
CNP(=S)(Oc1cc(Cl)c(Cl)cc1Cl)N1CCN(c2ccc(Cl)cc2)CC1 (centres undefined),> 36.3,21.4,–
COc1ccccc1C(=O)Nc1ccc(Cl)c(C(=O)OC(C)C)c1,–,–,active
Oc1ccccc1C1SCc2nc3ccccc3n21 (centres undefined),> 26.9,> 26.9,–
O=C(Cc1ccccc1)NN1C(=O)C(Cl)C1c1cccc([N+](=O)[O-])c1 (centres undefined),> 14.5,8.71,–
Cc1cccc(N2C(=O)C=C(NC(CC(C)C)c3nc4ccccc4[nH]3)C2c2ccccc2)c1 (centres undefined),> 200,17,–
CC(C)(C)C(=O)/C=C/c1ccc([N+](=O)[O-])cc1,–,10.2,inactive
COc1ccc(N2C(=O)C3CC4=CC(=O)C[C@H]4[C@H]32)cc1 (some centres undefined),> 200,151,–
CCOC(=O)N1CCN(c2nc(C)n(-c3ccccc3)c(=S)c2C#N)CC1,> 200,> 200,–
CN(C)CCCN1C(=S)N(CCCN(C)C)c2c3cc(O)ccc3nc3c([N+](=O)[O-])ccc1c23,> 2,0.417,–

Compound,EC50 [µM],IC50 [µM],outcome
CCNC(=S)NNC(=O)c1nsc2ccccc12,> 339,186,–
O=C(Nc1cc(C(F)(F)F)ccc1Cl)C(=O)C(C(=O)c1ccc2ccccc2c1)C1OC(=O)c2ccccc21 (centres undefined),> 33.9,18.6,–
CC1(C)CCSC(/C=C/c2ccccc2)=N1,> 20,4.17,–
Cc1ccc(S(=O)(=O)N(CCC(=O)O)c2ccccc2)cc1,> 200,> 200,–
CC1=CC(O)CC(C)(C)C1/C=C/C(C)=C/C=C/C(C)=C/C=C/C=C(C)/C=C/C=C(C)/C=C/C1=C(C)CC(O)CC1(C)C (centres undefined),> 200,33.9,–
Nc1nccc2c([N+](=O)[O-])cccc12,–,–,inactive
O=c1c2ccccc2nc(-c2ccccc2)n1NCC1(O)OCC(O)C(O)C1O (centres undefined),–,–,inactive
CCCOC(=O)c1cc(OC(C)=O)c2c(OC)ccc(OC)c2c1,> 40.7,> 40.7,–
O=C(O)CN(CC(=O)O)Cc1cc(C#Cc2ccc(C#Cc3ccccc3)cc2)cc(CN(CC(=O)O)CC(=O)O)n1,> 77.6,19.5,–
O=c1n(-c2ccccc2)c(=O)n2n1C1CC3c4ccccc4C1C32 (centres undefined),> 22.9,> 22.9,–
c1csc(C(NC2=NCCO2)C2CC2)c1 (centres undefined),> 200,166,–
O=C(NCCCCCCNC(=O)c1cnc2ccccc2n1)c1cnc2ccccc2n1,> 83.2,> 83.2,–
CCOC(=O)N1CC(C)=C(C)CN1C(=O)Nc1ccc(Cl)c(Cl)c1,> 200,81.3,–
CC(=O)O[C@]1(C(C)=O)CC[C@H]2[C@@H]3C[C@H](C)C4=CC(=O)C=C[C@]4(C)[C@@]3(F)[C@@H](O)C[C@@]21C,–,–,inactive
N#Cc1ccccc1NC(=O)/C(=N\N)C(C(=O)c1ccncc1)C1OC(=O)c2ccccc21 (centres undefined),–,–,inactive
O=S(=O)(O)CC(O)CSSCC(O)CS(=O)(=O)O (centres undefined),> 200,> 200,–
CC(C)C(=O)/C=C/c1ccccc1,> 200,57.5,–
CC1CCOn2c1nc1ccccc1c2=O (centres undefined),> 33.1,> 33.1,–
Nc1ccc(S(=O)(=O)S(=O)(=O)c2ccc(N)cc2)cc1,> 200,112,–
CN1C(=O)C23CCCN2C(=O)C1(C)SC(=N)S3 (centres undefined),> 200,> 200,–
O=C(Cc1nc2ccc(C(=O)c3ccccc3)cc2[nH]c1=O)C(=O)Nc1ccc(C(F)(F)F)cc1[N+](=O)[O-],> 69.2,47.9,–

Compound,EC50 [µM],IC50 [µM],outcome
CC(C)(C)C1=NC(S)NC(CCC(=O)Nc2ccccc2[N+](=O)[O-])=C1 (centres undefined),> 692,> 692,–
O=C(O)c1cc(S(=O)(=O)O)c2cccnc2c1O,> 200,> 200,–
COc1cccc2c1C(=O)c1c(O)c3c(c(O)c1C2=O)C[C@@](O)(C(C)=O)C[C@@H]3OC1CC(N(C)C)C(O)C(C)O1 (some centres undefined),–,–,inactive
O=C(Nc1ccc(Br)cc1)c1cc(Br)ccc1O,> 200,4.37,–
c1ccc(CN(Cn2cccn2)Cn2cccn2)nc1,–,–,inactive
O=C1/C(=C/c2ccc(Cl)cc2)CCCc2ccccc21,> 200,22.9,–
Nc1nc(N)c(C2=CCN(Cc3ccccc3)CC2)c(=O)[nH]1,> 200,> 200,–
N#CCCC/C(=N\O)C(=O)OCc1ccccc1,> 200,> 200,–
O=S1(=O)CCc2ccccc2C(Cl)C1 (centres undefined),> 407,> 407,–
CC(C)CC(=O)NC(NC(C)C)(C(F)(F)F)C(F)(F)F,> 200,> 200,–
Cc1ccc2[nH]c3nc4cc(C)c(C)cc4nc3c2c1,> 7.24,> 7.24,–
COc1ccc2c(O)c(S(=O)(=O)c3ccc(C)cc3)c(=O)oc2c1OC,> 100,> 100,–
CC(=O)Oc1c(C(C)C)cc2c(c1OC(C)=O)CC1(C)OC(=O)CC(C)(C)C1=CC2 (centres undefined),–,–,inactive
C/C(O)=c1\cc(C#N)c(=C(C#N)C#N)nc1C,–,–,inactive
N#C/C(=C\c1ccc(-c2ccccc2)cc1)c1ccc(Cl)cc1,> 100,> 100,–
N#Cc1ccc(N=NN2CCCC2)cc1,> 200,17.8,–
COc1cc2c(cc1OC)C(Cc1ccccc1NC(=O)c1ccc(C(=O)Nc3ccccc3CC3c4cc(OC)c(OC)cc4CCN3C)cc1)N(C)CC2 (centres undefined),–,–,inactive
O=C1/C(=C(/Br)I)c2ccccc2-c2ccccc21,> 200,8.32,–
CC(C)OP(=O)(OC(C)C)C(=NCCN=C(NNc1ccc([N+](=O)[O-])cc1)P(=O)(OC(C)C)OC(C)C)NNc1ccc([N+](=O)[O-])cc1,> 7.24,> 7.24,–
COC1(OC)CCC2C1C1CCC(OC)(OC)C21 (centres undefined),> 141,> 141,–
Nc1nc(Cl)c(N)c(NCC2(CO)CC(Cc3ccccc3)C2)n1 (centres undefined),> 200,19.5,–
